Measurements published in US9006265B2, “Substituted fused pyrimidinones and dihydropyrimidinones” (Bayer Intellectual Property GmbH, priority 2010, dated 2015).

Columns and labels:
BRSNS = assay: Drought stress test on crop plants in greenhouse, spray application; assay type: in vivo, Brassica napes; settings: efficacy = percentage reduction in intensity of damage, mean of three results
Experimental: (§1) Seeds of monocotyledonous and dicotyledonous crop plants were laid out in sandy loam in wood-fiber pots, covered with soil and cultivated in a greenhouse under good growth conditions. The test plants were treated at the early leaf stage (BBCH10-BBCH13). To ensure uniform water supply before commencement of stress, the potted plants were supplied with the maximum amount of water immediately beforehand by dam irrigation and, after application, transferred in plastic inserts in order to prevent subsequent, excessively rapid drying. The inventive compounds, formulated in the form of wettable powders (WP), wettable granules (WG), suspension concentrates (SC) or emulsion concentrates (EC), were sprayed onto the green parts of the plants as an aqueous suspension at an equivalent water application rate of 600 l/ha with addition of 0.2% wetting agent (agrotin). Substance application is followed immediately by stress treatment of the plants (cold or drought stress). For cold stress treatment, the plants were kept under the following controlled conditions: • “day”: 12 hours with illumination at 8° C. • “night”: 12 hours without illumination at 1° C.
(§2) Drought stress was induced by gradual drying out under the following conditions: • “day”: 14 hours with illumination at 26° C. • “night”: 10 hours without illumination at 18° C.
(§3) The duration of the respective stress phases was guided mainly by the state of the untreated (=treated with blank formulation without test compound), stressed control plants and thus varied from crop to crop. It was ended (by re-irrigating or transfer to a greenhouse with good growth conditions) as soon as irreversible damage was observed on the untreated, stressed control plants. In the case of dicotyledonous crops, for example oilseed rape and soybeans, the duration of the drought stress phase varied between 3 and 5 days, in the case of monocotyledonous crops, for example wheat, barley or corn, between 6 and 10 days. The duration of the cold stress phase varied between 12 and 14 days.
(§4) The end of the stress phase was followed by an approx. 5-7-day recovery phase, during which the plants were once again kept under good growth conditions in a greenhouse. In order to rule out any influence of the effects observed by any fungicidal action of the test compounds, it was additionally ensured that the tests proceeded without fungal infection and without infection pressure.
(§5) After the recovery phase had ended, the intensities of damage were rated in visual comparison to untreated, unstressed controls of the same age (in the case of drought stress) or the same growth stage (in the case of cold stress). The intensity of damage was first assessed as a percentage (100%=plants have died, 0%=like control plants). These values were then used to calculate the efficacy of the test compounds (=percentage reduction in the intensity of damage as a result of substance application) by the following formula:
(§6) [formula] EF: efficacy (%) DVus: damage value of the untreated, stressed control DVts: damage value of the plants treated with test compound
(§7) The tables A-1 and B-1 to B-4 below list mean values in each case from three results of the same test.
(§8) Efficacies of selected compounds of the formula (I) under drought stress using the examples of HORVS, BRSNS, ZEAMX und TRZAS: […]

ZEAMX [1] = assay: as above; assay type: in vivo, Zea mays; settings: efficacy = percentage reduction in intensity of damage, mean of three results
Experimental: as §1, §2, §3, §4, §5, §6, §7, §8

TRZAS = assay: as above; assay type: in vivo, Triticum aestivum; settings: dosage 250 g/ha, efficacy = percentage reduction in intensity of damage, mean of three results
Experimental: as §1, §2, §3, §4, §5, §6, §7, §8

ZEAMX [2] = assay: Cold stress test on crop plants in greenhouse, spray application; assay type: in vivo, Zea mays; settings: efficacy = percentage reduction in intensity of damage, mean of three results
Experimental: Seeds of monocotyledonous and dicotyledonous crop plants were laid out in sandy loam in wood-fiber pots, covered with soil and cultivated in a greenhouse under good growth conditions. The test plants were treated at the early leaf stage (BBCH10-BBCH13). To ensure uniform water supply before commencement of stress, the potted plants were supplied with the maximum amount of water immediately beforehand by dam irrigation and, after application, transferred in plastic inserts in order to prevent subsequent, excessively rapid drying. The inventive compounds, formulated in the form of wettable powders (WP), wettable granules (WG), suspension concentrates (SC) or emulsion concentrates (EC), were sprayed onto the green parts of the plants as an aqueous suspension at an equivalent water application rate of 600 l/ha with addition of 0.2% wetting agent (agrotin). Substance application is followed immediately by stress treatment of the plants (cold or drought stress). For cold stress treatment, the plants were kept under the following controlled conditions: • “day”: 12 hours with illumination at 8° C. • “night”: 12 hours without illumination at 1° C. The duration of the respective stress phases was guided mainly by the state of the untreated (=treated with blank formulation without test compound), stressed control plants and thus varied from crop to crop. It was ended (by re-irrigating or transfer to a greenhouse with good growth conditions) as soon as irreversible damage was observed on the untreated, stressed control plants. In the case of dicotyledonous crops, for example oilseed rape and soybeans, the duration of the drought stress phase varied between 3 and 5 days, in the case of monocotyledonous crops, for example wheat, barley or corn, between 6 and 10 days. The duration of the cold stress phase varied between 12 and 14 days. The end of the stress phase was followed by an approx. 5-7-day recovery phase, during which the plants were once again kept under good growth conditions in a greenhouse. In order to rule out any influence of the effects observed by any fungicidal action of the test compounds, it was additionally ensured that the tests proceeded without fungal infection and without infection pressure. After the recovery phase had ended, the intensities of damage were rated in visual comparison to untreated, unstressed controls of the same age (in the case of drought stress) or the same growth stage (in the case of cold stress). The intensity of damage was first assessed as a percentage (100%=plants have died, 0%=like control plants). These values were then used to calculate the efficacy of the test compounds (=percentage reduction in the intensity of damage as a result of substance application) by the following formula: [formula] EF: efficacy (%) DVus: damage value of the untreated, stressed control DVts: damage value of the plants treated with test compound The tables A-1 and B-1 to B-4 below list mean values in each case from three results of the same test. Efficacies of selected compounds of the formula (I) under cold stress using the example of ZEAMX: […]

Compound: Cc1cccc2c(=O)[nH]c(CCc3ccccc3)nc12 [I.1-145]
- EF (BRSNS) (BRSNS; dosage 50 g/ha): >5%

Compound: Cc1cc(Cl)cc2c(=O)[nH]c(-c3[nH]ncc3Br)nc12 [I.1-165]
- EF (BRSNS) (BRSNS; dosage 250 g/ha): >5%
- EF (ZEAMX) (ZEAMX [1]; dosage 250 g/ha): >5%
- EF (TRZAS) (TRZAS): >5%

Compound: O=c1[nH]c(-c2cc(Br)cs2)nc2c(Cl)cccc12 [I.1-201]
- EF (ZEAMX) (ZEAMX [1]; dosage 250 g/ha): >5%

Compound: CCn1ccc(C2NC(=O)c3cccc(OC)c3N2)n1 (stereo not drawn) [I.4-97]
- EF (ZEAMX) (ZEAMX [1]; dosage 250 g/ha): >5%
- EF (TRZAS) (TRZAS): >5%

Compound: O=c1[nH]c(COc2ccccc2)nc2cc(Cl)ccc12 [I.1-303]
- EF (ZEAMX) (ZEAMX [1]; dosage 250 g/ha): >5%

Compound: CCN(CC)CCN1C(=O)c2cccc(OC)c2NC1c1ccnn1C (stereo not drawn) [I.4-330]
- EF (ZEAMX) (ZEAMX [1]; dosage 250 g/ha): >5%
- EF (TRZAS) (TRZAS): >5%

Compound: COc1cccc2c1NC(CCc1ccccc1)NC2=O (stereo not drawn) [I.4-16]
- EF (BRSNS) (BRSNS; dosage 250 g/ha): >5%

Compound: COc1cc(/C=C/C2NC(=O)c3ccccc3N2C)cc(OC)c1O (stereo not drawn) [I.4-90]
- EF (BRSNS) (BRSNS; dosage 250 g/ha): >5%

Compound: COc1cccc2c(=O)[nH]c(-c3ccc([N+](=O)[O-])cc3)nc12 [I.1-36]
- EF (ZEAMX) (ZEAMX [2]; dosage 25 g/ha): >5%

Compound: CCn1nccc1C1NC(=O)c2cccc(C)c2N1 (stereo not drawn) [I.4-115]
- EF (BRSNS) (BRSNS; dosage 250 g/ha): >5%
- EF (TRZAS) (TRZAS): >5%

Compound: O=c1[nH]c(CCc2ccccc2)nc2c(Cl)cccc12 [I.1-172]
- EF (ZEAMX) (ZEAMX [2]; dosage 25 g/ha): >5%

Compound: COc1cc2nc(-c3ccoc3)[nH]c(=O)c2cc1OC [I.1-424]
- EF (ZEAMX) (ZEAMX [1]; dosage 250 g/ha): >5%

Compound: O=C1NC(CCc2ccccc2)Nc2cccc(F)c21 (stereo not drawn) [I.4-184]
- EF (ZEAMX) (ZEAMX [2]; dosage 250 g/ha): >5%

Compound: CC(C)c1nc2ccccc2c(=O)[nH]1 [I.1-15]
- EF (ZEAMX) (ZEAMX [1]; dosage 500 g/ha): >5%

Compound: CCOC(=O)c1c(C#N)nn2c1[nH]c(=O)c1ccccc12 [I.3-32]
- EF (ZEAMX) (ZEAMX [1]; dosage 250 g/ha): >5%

Compound: O=c1[nH]c(-c2nc[nH]n2)nc2ccccc12 [I.1-30]
- EF (ZEAMX) (ZEAMX [1]; dosage 500 g/ha): >5%

Compound: Cc1cccc2c1NC(c1ccoc1)NC2=O (stereo not drawn) [I.4-84]
- EF (ZEAMX) (ZEAMX [1]; dosage 250 g/ha): >5%

Compound: Cc1cccc2c(=O)[nH]c(-c3ccc(Br)cc3)nc12 [I.1-378]
- EF (TRZAS) (TRZAS): >5%

Compound: COc1cccc2c1NC(/C=C/c1ccccc1)NC2=O (stereo not drawn) [I.4-75, 2R,S-8-methoxy-2-[(E)-2-phenylethenyl]-2,3-dihydroquinazolin-4(1H)-one]
- EF (BRSNS) (BRSNS; dosage 250 g/ha): >5%
- EF (TRZAS) (TRZAS): >5%

Compound: Cc1cccc2c1C(=O)NC(c1ccsc1)N2 (stereo not drawn) [I.4-180]
- EF (ZEAMX) (ZEAMX [1]; dosage 250 g/ha): >5%

Compound: Cc1ccc(-c2nc3c(C)cccc3c(=O)[nH]2)c(Cl)c1 [I.1-505, 2-(2-Chloro-4-methylphenyl)-8-methylquinazolin-4(3H)-one]
- melting point: 234 °C

Compound: COc1cccc2c(=O)[nH]c(C3CCCC3)nc12 [I.1-157]
- EF (ZEAMX) (ZEAMX [1]; dosage 500 g/ha): >5%

Compound: O=C1NC(c2ccoc2)Nc2cccc(Cl)c21 (stereo not drawn) [I.4-232]
- EF (BRSNS) (BRSNS; dosage 250 g/ha): >5%
- EF (TRZAS) (TRZAS): >5%

Compound: Cc1cc(-c2nc3ccccc3c(=O)[nH]2)oc1C [I.1-45]
- EF (ZEAMX) (ZEAMX [1]; dosage 500 g/ha): >5%

Compound: O=C1NC(c2ccoc2)Nc2ccccc21 (stereo not drawn) [I.4-51]
- EF (ZEAMX) (ZEAMX [2]; dosage 250 g/ha): >5%

Compound: O=C1NC(c2ccsc2)Nc2cccc(F)c21 (stereo not drawn) [I.4-177]
- EF (ZEAMX) (ZEAMX [1]; dosage 250 g/ha): >5%
